Dmax and DC50 data for 33 compounds are collected here from patent US20230002397A1, “SMALL MOLECULE DEGRADERS OF HELIOS AND METODS OF USE” (DANA-FARBER CANCER INSTITUTE, INC., priority 2019, published 2023).

Like-named read-outs stand apart in the source and are kept apart here.

This test addresses T1, IKZF2 (Homo sapiens, UniProt Q96SW2+Q9UKS7).
T1 construct: CRISPR/Cas9—mediated insertion of the HiBiT peptide tag (Promega™) to the N-terminus of the IKZF2 gene locus; endogenous in cells; host or cells: MOLT4 cells, with CRISPR/Cas9 knock-in of HiBiT at the endogenous IKZF2 locus
Nature of the test: HiBit-IKZF2 assay (HiBiT-Helios degradation in MOLT4 cells). The test is classed as cell-based. The following applies: for Dmax: 10 μM to 0.00026 μM; for DC50: concentration at which 50% of HiBiT-Helios degradation was achieved. On the procedure:
The HiBiT protein tagging system was applied to MOLT4 cells via a CRISPR/Cas9—mediated insertion of the HiBiT peptide tag (Promega™) to the N-terminus of the IKZF2 gene locus (Neon™ Transfection System). The resulting HiBiT-Helios stable cell line was treated with the following compounds in triplicates following a 13-point concentration scheme ranging from 10 μM to 0.00026 μM. At the indicated timepoints, the Nano-Glo® HiBiT Lytic Detection System (Promega™) was utilized for detecting bioluminescence of the HiBiT tag in treated cells: abundance of the tag is proportionate to the level of luminescence. Following normalization to DMSO, dose-response curves were plotted (GraphPad Prism) to determine the concentration points at which 50% of HiBiT-Helios degradation was achieved by each compound. The extent of degradation (range of luminescence) from the highest to lowest concentration points was calculated to determine the Dmax.

[1] abbreviates: MOLT-4, extent of degradation from highest to lowest concentration, read-out: Dmax.
[2] abbreviates: extent of degradation from highest to lowest concentration.

T1 sequence (Q9UKS7 whole entry): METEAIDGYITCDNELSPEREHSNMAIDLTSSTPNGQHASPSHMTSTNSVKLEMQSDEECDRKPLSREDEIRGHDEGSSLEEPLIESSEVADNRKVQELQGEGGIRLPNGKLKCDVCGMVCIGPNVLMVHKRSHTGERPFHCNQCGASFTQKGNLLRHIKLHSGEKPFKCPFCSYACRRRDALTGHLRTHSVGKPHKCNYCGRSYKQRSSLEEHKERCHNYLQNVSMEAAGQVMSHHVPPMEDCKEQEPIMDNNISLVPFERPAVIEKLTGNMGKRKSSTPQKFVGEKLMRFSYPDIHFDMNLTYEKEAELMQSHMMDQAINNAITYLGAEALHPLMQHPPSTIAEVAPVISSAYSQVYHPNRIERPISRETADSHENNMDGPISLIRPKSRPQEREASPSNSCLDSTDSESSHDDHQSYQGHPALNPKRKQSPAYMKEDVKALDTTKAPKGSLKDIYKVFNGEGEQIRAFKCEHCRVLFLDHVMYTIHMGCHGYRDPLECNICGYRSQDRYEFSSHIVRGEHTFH
T1 sequence (Q96SW2 whole entry): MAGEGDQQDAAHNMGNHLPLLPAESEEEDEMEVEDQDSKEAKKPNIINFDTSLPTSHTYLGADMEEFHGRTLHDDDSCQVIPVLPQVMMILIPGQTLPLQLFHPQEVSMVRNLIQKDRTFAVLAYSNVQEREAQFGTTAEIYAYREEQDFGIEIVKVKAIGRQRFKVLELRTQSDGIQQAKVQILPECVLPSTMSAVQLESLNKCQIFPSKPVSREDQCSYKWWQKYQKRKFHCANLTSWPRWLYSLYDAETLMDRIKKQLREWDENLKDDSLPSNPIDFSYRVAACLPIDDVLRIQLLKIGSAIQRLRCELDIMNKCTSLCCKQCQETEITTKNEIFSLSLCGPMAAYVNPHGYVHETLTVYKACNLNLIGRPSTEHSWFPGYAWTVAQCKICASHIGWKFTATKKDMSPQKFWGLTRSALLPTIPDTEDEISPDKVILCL
T1 sequence (Q16531 whole entry partner): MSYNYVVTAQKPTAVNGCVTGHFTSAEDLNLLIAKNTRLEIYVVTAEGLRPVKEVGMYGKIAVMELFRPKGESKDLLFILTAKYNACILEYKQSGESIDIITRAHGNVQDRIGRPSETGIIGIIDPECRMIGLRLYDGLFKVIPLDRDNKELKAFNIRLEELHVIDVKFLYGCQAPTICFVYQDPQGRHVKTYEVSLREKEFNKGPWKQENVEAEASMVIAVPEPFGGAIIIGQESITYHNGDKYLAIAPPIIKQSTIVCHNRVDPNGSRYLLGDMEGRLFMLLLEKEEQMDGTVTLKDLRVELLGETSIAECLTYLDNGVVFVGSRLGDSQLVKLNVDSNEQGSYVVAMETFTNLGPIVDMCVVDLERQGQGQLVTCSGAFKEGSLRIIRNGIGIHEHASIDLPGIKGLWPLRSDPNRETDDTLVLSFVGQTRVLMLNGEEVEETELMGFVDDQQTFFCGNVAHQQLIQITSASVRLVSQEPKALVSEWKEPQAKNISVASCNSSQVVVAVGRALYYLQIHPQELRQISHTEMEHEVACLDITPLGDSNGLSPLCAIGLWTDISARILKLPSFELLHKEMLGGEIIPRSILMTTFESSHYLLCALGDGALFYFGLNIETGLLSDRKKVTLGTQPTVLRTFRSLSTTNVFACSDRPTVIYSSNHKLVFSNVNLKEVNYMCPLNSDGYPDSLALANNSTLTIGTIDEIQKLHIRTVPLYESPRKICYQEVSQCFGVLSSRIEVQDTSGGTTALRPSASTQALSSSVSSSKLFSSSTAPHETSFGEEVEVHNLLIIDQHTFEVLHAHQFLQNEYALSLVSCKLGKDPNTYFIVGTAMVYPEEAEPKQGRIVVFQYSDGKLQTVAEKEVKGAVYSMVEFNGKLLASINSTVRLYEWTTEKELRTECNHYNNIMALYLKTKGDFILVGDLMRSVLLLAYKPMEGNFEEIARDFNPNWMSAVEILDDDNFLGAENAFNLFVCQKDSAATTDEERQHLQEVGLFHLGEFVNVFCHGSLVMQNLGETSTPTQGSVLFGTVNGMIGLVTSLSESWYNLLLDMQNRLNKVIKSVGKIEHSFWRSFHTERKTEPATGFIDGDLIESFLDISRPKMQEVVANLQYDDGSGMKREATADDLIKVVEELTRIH

Take `O=C1CCC(N2Cc3cc(C4CCN(Cc5ccc6c(c5)CN(c5ccccc5)C6=O)CC4)ccc3C2=O)C(=O)N1` (stereo not drawn) [Compound 123]: the DC50 was in the range of 0.01 to 0.03 µM. Also, the Dmax under setting [1] was in the range of 50 to 70%.

Compound `O=C1CCC(N2Cc3cc(C4CCN(Cc5cccc(N6CCN(c7ccccc7)C6=O)c5)CC4)ccc3C2=O)C(=O)N1` (stereo not drawn) [Compound 48] returned a DC50 of 0.03 to 0.15 µM. Moreover, under setting [1], the maximal degradation (Dmax) fell in the range of 50 to 70%.

In the case of `O=C1CCC(N2Cc3cc(C4(O)CCN(Cc5ccc6ncn(-c7ccccc7)c(=O)c6c5)CC4)ccc3C2=O)C(=O)N1` (stereo not drawn) [Compound 234], the half-maximal degradation concentration (DC50) is below 0.01 µM. Further, the Dmax result under setting [2] is listed as “+++ (“+++” is >70%)”.

In the case of `O=C1CCC(N2Cc3cc(C4(O)CCN(Cc5cccc(Oc6ccccc6)c5)CC4)ccc3C2=O)C(=O)N1` (stereo not drawn) [Compound 193], the half-maximal degradation concentration (DC50) is below 0.01 µM. Also, under setting [1], the Dmax was above 70%.

As to `O=C1CCC(N2Cc3cc(C4(O)CCN(Cc5ccccc5OCc5ccccc5)CC4)ccc3C2=O)C(=O)N1` (stereo not drawn) [Compound 276], the DC50 is below 0.01 µM. For the same compound, the Dmax under setting [1] fell in the range of 50 to 70%.

In the case of `O=C1CCC(N2Cc3cc(C4(O)CCN(Cc5cccc6cccnc56)CC4)ccc3C2=O)C(=O)N1` (stereo not drawn) [Compound 280], the DC50 was in the range of 0.01 to 0.03 µM. The Dmax under setting [1] was above 70%.

`O=C1CCC(N2Cc3cc(C4CCN(Cc5ccc6c(c5)C(=O)N(c5cccc(O)c5)C6)CC4)ccc3C2=O)C(=O)N1` (stereo not drawn) [Compound 217] displayed a DC50 below 0.01 µM. Besides, under setting [1], the Dmax was above 70%.

Compound `O=C1CCC(N2Cc3cc(C4(O)CCN(Cc5ccc6ncn(-c7ccccn7)c(=O)c6c5)CC4)ccc3C2=O)C(=O)N1` (stereo not drawn) [Compound 235] yielded a DC50 below 0.01 µM. Besides, the Dmax under setting [1] was above 70%.

The compound `O=C1CCC(N2Cc3cc(C4(O)CCN(Cc5ccc(F)c(Cl)c5)CC4)ccc3C2=O)C(=O)N1` (stereo not drawn) [Compound 255] showed a DC50 below 0.01 µM. Also, under setting [1], the Dmax is above 70%.

`O=C1CCC(N2Cc3cc(C4CCN(Cc5cccc(N6CCCCC6=O)c5)CC4)ccc3C2=O)C(=O)N1` (stereo not drawn) [Compound 161]: the DC50 lay within 0.01 to 0.03 µM. Under setting [1], the Dmax fell in the range of 30 to 50%.

`O=C1CCC(N2Cc3cc(C4CCN(Cc5cccc(Nc6ccccc6)c5)CC4)ccc3C2=O)C(=O)N1` (stereo not drawn) [Compound 46, 3-(1-oxo-5-(1-(3-(phenylamino)benzyl)piperidin-4-yl)isoindolin-2-yl)piperidine-2,6-dione]: the DC50 was below 0.01 µM. Moreover, under setting [1], the Dmax was 50 to 70%.

In turn, `O=C1CCC(N2Cc3cc(C4(O)CCN(Cc5cccc(-c6ccccc6)c5)CC4)ccc3C2=O)C(=O)N1` (stereo not drawn) [Compound 273] came in with a DC50 below 0.01 µM. The Dmax under setting [1] is above 70%.

The compound `O=C1CCC(N2Cc3cc(C4CCN(Cc5cccc(Nc6ccccn6)c5)CC4)ccc3C2=O)C(=O)N1` (stereo not drawn) [Compound 42, 3-(1-oxo-5-(1-(3-(pyridin-2-ylamino)benzyl)piperidin-4-yl)isoindolin-2-yl)piperidine-2,6-dione] returned a DC50 below 0.01 µM. For the same compound, under setting [1], the Dmax lay in the range of 50 to 70%.

Compound `O=C1CCC(N2Cc3cc(C4(O)CCN(Cc5ccc(OC(F)F)cc5)CC4)ccc3C2=O)C(=O)N1` (stereo not drawn) [Compound 247] displayed a DC50 below 0.01 µM. Besides, under setting [1], the Dmax is above 70%.

In turn, `O=C1CCC(N2Cc3cc(C4CCN(Cc5ccccc5Nc5ccccn5)CC4)ccc3C2=O)C(=O)N1` (stereo not drawn) [Compound 120] showed a DC50 of 0.01 to 0.03 µM. Further, under setting [1], the Dmax was in the range of 50 to 70%.

With `O=C1CCC(N2Cc3cc(C4CCN(Cc5ccccc5N5Cc6ccccc6C5=O)CC4)ccc3C2=O)C(=O)N1` (stereo not drawn) [Compound 117], the DC50 was in the range of 0.03 to 0.15 µM. Further, the Dmax under setting [1] lay in the range of 30 to 50%.

For the compound `O=C1CCC(N2Cc3cc(C4CCN(Cc5cccc(Nc6ccccn6)n5)CC4)ccc3C2=O)C(=O)N1` (stereo not drawn) [Compound 101], the DC50 lay within 0.01 to 0.03 µM. The greatest degradation seen (Dmax) under setting [1] is 30 to 50%.

In turn, `O=C1CCC(N2Cc3cc(C4(O)CCN(Cc5cccc(F)c5F)CC4)ccc3C2=O)C(=O)N1` (stereo not drawn) [Compound 243] showed a DC50 below 0.01 µM. Also, the Dmax under setting [1] was above 70%.

Take `N#Cc1ccccc1CN1CCC(O)(c2ccc3c(c2)CN(C2CCC(=O)NC2=O)C3=O)CC1` (stereo not drawn) [Compound 237]: the DC50 was below 0.01 µM. In addition, the greatest degradation seen (Dmax) under setting [1] is 50 to 70%.

In turn, `O=C1CCC(N2Cc3cc(C4(O)CCN(Cc5cccc(-c6nccs6)c5)CC4)ccc3C2=O)C(=O)N1` (stereo not drawn) [Compound 281] registered a DC50 below 0.01 µM. In addition, under setting [1], the Dmax is above 70%.

In turn, `O=C1CCC(N2Cc3cc(C4CCN(Cc5ccnc(Oc6ccccc6)c5)CC4)ccc3C2=O)C(=O)N1` (stereo not drawn) [Compound 43, 3-(1-oxo-5-(1-((2-phenoxypyridin-4-yl)methyl)piperidin-4-yl)isoindolin-2-yl)piperidine-2,6-dione] returned a DC50 of 0.03 to 0.15 µM. Also, the greatest degradation seen (Dmax) under setting [1] was 50 to 70%.

Take `O=C1CCC(N2Cc3cc(C4CCN(Cc5ccccc5C(=O)N5CC6C(C5)C6(F)F)CC4)ccc3C2=O)C(=O)N1` (stereo not drawn) [Compound 111]: the 50% degradation concentration (DC50) is 0.03 to 0.15 µM. For the same compound, the Dmax under setting [1] fell in the range of 30 to 50%.

`O=C1CCC(N2Cc3cc(C4CCN(Cc5ccc6c(c5)C(=O)N(c5ccccc5)CC6)CC4)ccc3C2=O)C(=O)N1` (stereo not drawn) [Compound 105, 3-(1-oxo-5-(1-((1-oxo-2-phenyl-1,2,3,4-tetrahydroisoquinolin-7-yl)methyl)piperidin-4-yl)isoindolin-2-yl)piperidine-2,6-dione]: the DC50 is below 0.01 µM. Moreover, the Dmax under setting [1] fell in the range of 50 to 70%.

For `O=C1CCC(N2Cc3cc(C4CCN(Cc5cccc(S(=O)(=O)N6CC7(COC7)C6)c5)CC4)ccc3C2=O)C(=O)N1` (stereo not drawn) [Compound 62], the DC50 lay within 0.03 to 0.15 µM. Besides, under setting [1], the Dmax was 50 to 70%.

Turning to `O=C1CCC(N2Cc3cc(C4(O)CCN(Cc5ccc6c(c5)C(=O)N(c5ccccn5)C6)CC4)ccc3C2=O)C(=O)N1` (stereo not drawn) [Compound 220], the DC50 is below 0.01 µM. Also, the maximal degradation (Dmax) under setting [1] was above 70%.

Consider `O=C1CCC(N2Cc3cc(C4(O)CCN(Cc5cccc(C(F)(F)F)c5)CC4)ccc3C2=O)C(=O)N1` (stereo not drawn) [Compound 250], for which the half-maximal degradation concentration (DC50) was below 0.01 µM. Also, the Dmax under setting [1] is above 70%.

The compound `O=C1CCC(N2Cc3cc(C4CCN(Cc5cnc(Nc6ccccc6)nc5)CC4)ccc3C2=O)C(=O)N1` (stereo not drawn) [Compound 139] returned a DC50 of 0.03 to 0.15 µM. Moreover, the Dmax under setting [1] lay within 50 to 70%.

The compound `O=C1CCC(N2Cc3cc(C4CCN(Cc5ccc6c(c5)C(=O)N(c5ccccc5O)C6)CC4)ccc3C2=O)C(=O)N1` (stereo not drawn) [Compound 218] yielded a DC50 of 0.01 to 0.03 µM. The greatest degradation seen (Dmax) under setting [1] was above 70%.

For `N#Cc1ccc(N2Cc3ccc(CN4CCC(c5ccc6c(c5)CN(C5CCC(=O)NC5=O)C6=O)CC4)cc3C2=O)c(F)c1` (stereo not drawn) [Compound 177], the DC50 is below 0.01 µM. The Dmax under setting [1] fell in the range of 50 to 70%.

In turn, `O=C1CCC(N2Cc3cc(C4(O)CCN(Cc5ccc6c(c5)C(=O)N(c5ccns5)C6)CC4)ccc3C2=O)C(=O)N1` (stereo not drawn) [Compound 225] gave a DC50 below 0.01 µM. Besides, the Dmax under setting [1] is above 70%.

`O=C1CCC(N2Cc3cc(C4CCN(Cc5ccc(S(=O)(=O)N6CCc7ccccc76)cc5)CC4)ccc3C2=O)C(=O)N1` (stereo not drawn) [Compound 167] gave a DC50 below 0.01 µM. Moreover, the Dmax under setting [1] was 50 to 70%.

Compound `O=C1CCC(N2Cc3cc(C4(O)CCN(Cc5cccc6ccccc56)CC4)ccc3C2=O)C(=O)N1` (stereo not drawn) [Compound 204] registered a DC50 below 0.01 µM. Further, the Dmax under setting [1] is above 70%.

In the case of `O=C1CCC(N2Cc3cc(C4CCN(Cc5ccc6c(c5F)C(=O)N(c5ccccc5)C6)CC4)ccc3C2=O)C(=O)N1` (stereo not drawn) [Compound 213], the DC50 was 0.01 to 0.03 µM. Moreover, under setting [2], the Dmax entry was “++ (“++” is from >50% to <70%)”.
